Assay results reported in doi:10.1101/2021.09.30.462449v1 (biorxiv, 2021).

How the values were obtained:
Test in all cases: biochemical
Settings in all cases: read-out: % inhibition mean (Z'Lyte)
MAPKAPK5 (PRAK) = MAPKAPK5 (PRAK) (Homo sapiens, UniProt Q8IW41)
MARK3 = MARK3 (Homo sapiens, UniProt P27448)
MKNK1 (MNK1) = MKNK1 (MNK1) (Homo sapiens, UniProt Q9BUB5)
RPS6KA1 (RSK1) = RPS6KA1 (RSK1) (Homo sapiens, UniProt Q15418)
CAMK2D (CaMKII delta) = CAMK2D (CaMKII delta) (Homo sapiens, UniProt Q13557)
DYRK4 = DYRK4 (Homo sapiens, UniProt Q9NR20)
EPHB2 = EPHB2 (Homo sapiens, UniProt P29323)
AMPK (A1/B2/G2) = AMPK (A1/B2/G2) (Homo sapiens, UniProt Q13131)
IRAK4 = IRAK4 (Homo sapiens, UniProt Q9NWZ3)
PIM1 = PIM1 (Homo sapiens, UniProt P11309)
AMPK (A2/B1/G2) = AMPK (A2/B1/G2) (Homo sapiens, UniProt P54646)
ABL1 G250E = ABL1 G250E (Homo sapiens, UniProt P00519, G250E)
KDR (VEGFR2) = KDR (VEGFR2) (Homo sapiens, UniProt P35968)
ABL1 T315I = ABL1 T315I (Homo sapiens, UniProt P00519, T315I)
RET A883F = RET A883F (Homo sapiens, UniProt P07949, A883F)
MAPK10 (JNK3) = MAPK10 (JNK3) (Homo sapiens, UniProt P53779)
CDK17/cyclin Y = CDK17/cyclin Y (Homo sapiens, UniProt Q00537)
MAP3K9 (MLK1) = MAP3K9 (MLK1) (Homo sapiens, UniProt P80192)
PRKCZ (PKC zeta) = PRKCZ (PKC zeta) (Homo sapiens, UniProt Q05513)
KIT V559D V654A = KIT V559D V654A (Homo sapiens, UniProt P10721, V559D/V654A)
FRK (PTK5) = FRK (PTK5) (Homo sapiens, UniProt P42685)
TYRO3 (RSE) = TYRO3 (RSE) (Homo sapiens, UniProt Q06418)
MUSK = MUSK (Homo sapiens, UniProt O15146)
PRKCI (PKC iota) = PRKCI (PKC iota) (Homo sapiens, UniProt P41743)
RPS6KA3 (RSK2) = RPS6KA3 (RSK2) (Homo sapiens, UniProt P51812)
EGFR (ErbB1) G719C = EGFR (ErbB1) G719C (Homo sapiens, UniProt P00533, G719C)
PTK2 (FAK) = PTK2 (FAK) (Homo sapiens, UniProt Q05397)
PTK6 (Brk) = PTK6 (Brk) (Homo sapiens, UniProt Q13882)
Sequence of PTK6 (Brk) (Q13882 whole entry): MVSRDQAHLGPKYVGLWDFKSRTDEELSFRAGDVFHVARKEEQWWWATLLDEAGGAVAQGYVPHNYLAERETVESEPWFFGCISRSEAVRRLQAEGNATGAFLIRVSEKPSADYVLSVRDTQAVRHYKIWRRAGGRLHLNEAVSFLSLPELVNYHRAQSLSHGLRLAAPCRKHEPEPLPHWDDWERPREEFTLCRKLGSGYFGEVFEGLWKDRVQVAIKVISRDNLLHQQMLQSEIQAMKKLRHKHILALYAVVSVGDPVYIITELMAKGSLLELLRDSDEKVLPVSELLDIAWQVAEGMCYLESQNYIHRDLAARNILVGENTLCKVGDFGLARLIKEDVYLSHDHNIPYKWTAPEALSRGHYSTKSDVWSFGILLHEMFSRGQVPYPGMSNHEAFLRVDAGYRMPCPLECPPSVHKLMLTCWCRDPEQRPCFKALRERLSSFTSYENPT

Sequence of MAPK10 (JNK3) (P53779 whole entry): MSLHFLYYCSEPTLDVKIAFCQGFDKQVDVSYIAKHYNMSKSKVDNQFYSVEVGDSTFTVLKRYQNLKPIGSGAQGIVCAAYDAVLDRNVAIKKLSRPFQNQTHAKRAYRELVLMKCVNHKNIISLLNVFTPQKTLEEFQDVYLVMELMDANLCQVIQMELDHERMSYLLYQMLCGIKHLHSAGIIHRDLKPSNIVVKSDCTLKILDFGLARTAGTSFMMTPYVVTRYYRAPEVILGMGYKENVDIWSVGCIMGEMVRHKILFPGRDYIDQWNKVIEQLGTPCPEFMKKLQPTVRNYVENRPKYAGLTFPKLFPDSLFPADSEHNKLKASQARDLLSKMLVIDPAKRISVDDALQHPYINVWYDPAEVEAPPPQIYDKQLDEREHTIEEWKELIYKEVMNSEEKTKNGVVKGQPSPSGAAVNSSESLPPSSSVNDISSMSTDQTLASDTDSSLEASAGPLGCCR
Sequence of EPHB2 (P29323 whole entry): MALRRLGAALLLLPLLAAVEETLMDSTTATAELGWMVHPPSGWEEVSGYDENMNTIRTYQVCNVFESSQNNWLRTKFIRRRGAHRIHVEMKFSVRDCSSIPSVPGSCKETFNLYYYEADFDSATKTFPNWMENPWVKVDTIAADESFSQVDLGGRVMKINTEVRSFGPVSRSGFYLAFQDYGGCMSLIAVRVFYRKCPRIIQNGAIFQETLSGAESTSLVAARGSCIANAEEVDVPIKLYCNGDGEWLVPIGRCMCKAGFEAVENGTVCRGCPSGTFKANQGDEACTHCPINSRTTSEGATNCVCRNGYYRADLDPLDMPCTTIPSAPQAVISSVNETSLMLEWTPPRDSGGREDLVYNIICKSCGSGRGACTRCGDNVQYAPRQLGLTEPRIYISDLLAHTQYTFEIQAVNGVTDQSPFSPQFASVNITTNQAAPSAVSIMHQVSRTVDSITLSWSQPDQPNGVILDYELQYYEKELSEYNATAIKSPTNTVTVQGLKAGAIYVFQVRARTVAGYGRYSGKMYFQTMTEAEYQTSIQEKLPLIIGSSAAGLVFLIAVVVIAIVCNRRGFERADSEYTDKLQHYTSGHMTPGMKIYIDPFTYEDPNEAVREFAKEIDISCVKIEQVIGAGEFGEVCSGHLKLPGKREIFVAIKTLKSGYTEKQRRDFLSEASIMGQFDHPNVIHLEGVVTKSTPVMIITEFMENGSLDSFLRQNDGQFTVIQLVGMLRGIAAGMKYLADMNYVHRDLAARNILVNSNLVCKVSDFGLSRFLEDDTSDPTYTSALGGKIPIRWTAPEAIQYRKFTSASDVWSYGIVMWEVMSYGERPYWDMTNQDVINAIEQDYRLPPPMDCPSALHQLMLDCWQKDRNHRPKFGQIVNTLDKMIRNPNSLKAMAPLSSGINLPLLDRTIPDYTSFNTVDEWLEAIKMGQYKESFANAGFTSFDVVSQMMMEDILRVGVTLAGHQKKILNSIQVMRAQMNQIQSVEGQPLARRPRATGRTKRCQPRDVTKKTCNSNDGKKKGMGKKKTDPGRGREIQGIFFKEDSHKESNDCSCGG
Sequence of RPS6KA3 (RSK2) (P51812 whole entry): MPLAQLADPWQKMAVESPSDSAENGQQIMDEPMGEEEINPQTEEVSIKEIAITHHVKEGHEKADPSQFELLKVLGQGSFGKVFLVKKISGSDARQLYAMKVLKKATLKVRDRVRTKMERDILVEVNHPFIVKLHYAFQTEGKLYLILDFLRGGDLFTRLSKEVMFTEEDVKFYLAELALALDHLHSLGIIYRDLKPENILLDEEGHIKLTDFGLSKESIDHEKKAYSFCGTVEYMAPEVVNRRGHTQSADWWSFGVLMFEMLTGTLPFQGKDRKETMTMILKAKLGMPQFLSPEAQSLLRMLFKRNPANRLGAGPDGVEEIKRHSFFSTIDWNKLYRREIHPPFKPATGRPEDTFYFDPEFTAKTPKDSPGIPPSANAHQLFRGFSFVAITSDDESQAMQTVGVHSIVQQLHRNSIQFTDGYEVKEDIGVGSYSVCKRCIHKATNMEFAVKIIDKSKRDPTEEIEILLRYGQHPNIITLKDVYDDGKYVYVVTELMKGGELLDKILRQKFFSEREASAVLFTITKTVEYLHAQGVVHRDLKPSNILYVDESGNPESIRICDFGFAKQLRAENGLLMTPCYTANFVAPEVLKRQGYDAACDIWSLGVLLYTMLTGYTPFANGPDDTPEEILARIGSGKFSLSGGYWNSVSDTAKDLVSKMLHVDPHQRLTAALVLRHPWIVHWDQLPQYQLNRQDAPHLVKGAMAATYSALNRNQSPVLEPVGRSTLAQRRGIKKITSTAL
Sequence of RPS6KA1 (RSK1) (Q15418 whole entry): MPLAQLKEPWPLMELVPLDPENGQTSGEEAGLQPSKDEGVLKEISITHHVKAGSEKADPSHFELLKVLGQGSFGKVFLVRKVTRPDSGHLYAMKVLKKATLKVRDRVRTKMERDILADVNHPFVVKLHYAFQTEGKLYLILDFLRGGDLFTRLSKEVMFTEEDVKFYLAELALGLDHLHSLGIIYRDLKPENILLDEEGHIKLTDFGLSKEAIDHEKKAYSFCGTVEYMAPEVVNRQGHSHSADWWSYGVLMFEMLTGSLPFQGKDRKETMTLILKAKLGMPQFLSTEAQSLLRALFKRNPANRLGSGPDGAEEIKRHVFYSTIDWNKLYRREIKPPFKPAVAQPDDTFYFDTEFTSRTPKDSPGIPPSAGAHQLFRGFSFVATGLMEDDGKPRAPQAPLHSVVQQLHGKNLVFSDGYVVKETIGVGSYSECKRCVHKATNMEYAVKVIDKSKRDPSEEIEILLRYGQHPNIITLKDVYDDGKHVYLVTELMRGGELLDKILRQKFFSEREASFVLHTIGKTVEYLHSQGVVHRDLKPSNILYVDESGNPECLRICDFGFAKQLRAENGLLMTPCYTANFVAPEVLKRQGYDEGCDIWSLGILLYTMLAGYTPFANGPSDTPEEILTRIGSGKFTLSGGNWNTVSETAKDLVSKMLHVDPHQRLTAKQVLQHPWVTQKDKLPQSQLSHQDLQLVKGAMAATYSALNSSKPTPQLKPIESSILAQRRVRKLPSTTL
Sequence of MUSK (O15146 whole entry): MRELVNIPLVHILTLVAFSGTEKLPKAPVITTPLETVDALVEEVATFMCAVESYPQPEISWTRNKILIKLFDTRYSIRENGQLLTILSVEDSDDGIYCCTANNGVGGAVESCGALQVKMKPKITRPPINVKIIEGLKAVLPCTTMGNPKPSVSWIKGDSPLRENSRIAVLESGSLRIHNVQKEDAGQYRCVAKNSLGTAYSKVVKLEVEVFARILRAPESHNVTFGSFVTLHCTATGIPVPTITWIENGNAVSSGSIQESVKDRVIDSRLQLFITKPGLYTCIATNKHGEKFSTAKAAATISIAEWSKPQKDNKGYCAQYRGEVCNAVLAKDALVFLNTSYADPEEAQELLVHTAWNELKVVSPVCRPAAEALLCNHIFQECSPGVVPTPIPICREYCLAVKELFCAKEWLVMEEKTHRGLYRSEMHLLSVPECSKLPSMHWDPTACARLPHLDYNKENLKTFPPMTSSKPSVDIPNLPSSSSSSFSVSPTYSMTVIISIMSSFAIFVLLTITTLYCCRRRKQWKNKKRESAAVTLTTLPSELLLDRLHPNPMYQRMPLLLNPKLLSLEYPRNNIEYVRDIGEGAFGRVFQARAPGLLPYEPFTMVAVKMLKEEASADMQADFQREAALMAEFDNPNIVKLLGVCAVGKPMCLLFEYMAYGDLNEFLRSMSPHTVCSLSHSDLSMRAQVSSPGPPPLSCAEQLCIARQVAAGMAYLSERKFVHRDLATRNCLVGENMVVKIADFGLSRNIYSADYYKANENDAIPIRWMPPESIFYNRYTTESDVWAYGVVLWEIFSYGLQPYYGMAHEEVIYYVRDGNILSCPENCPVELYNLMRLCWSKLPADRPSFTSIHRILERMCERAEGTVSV
Sequence of PRKCI (PKC iota) (P41743 whole entry): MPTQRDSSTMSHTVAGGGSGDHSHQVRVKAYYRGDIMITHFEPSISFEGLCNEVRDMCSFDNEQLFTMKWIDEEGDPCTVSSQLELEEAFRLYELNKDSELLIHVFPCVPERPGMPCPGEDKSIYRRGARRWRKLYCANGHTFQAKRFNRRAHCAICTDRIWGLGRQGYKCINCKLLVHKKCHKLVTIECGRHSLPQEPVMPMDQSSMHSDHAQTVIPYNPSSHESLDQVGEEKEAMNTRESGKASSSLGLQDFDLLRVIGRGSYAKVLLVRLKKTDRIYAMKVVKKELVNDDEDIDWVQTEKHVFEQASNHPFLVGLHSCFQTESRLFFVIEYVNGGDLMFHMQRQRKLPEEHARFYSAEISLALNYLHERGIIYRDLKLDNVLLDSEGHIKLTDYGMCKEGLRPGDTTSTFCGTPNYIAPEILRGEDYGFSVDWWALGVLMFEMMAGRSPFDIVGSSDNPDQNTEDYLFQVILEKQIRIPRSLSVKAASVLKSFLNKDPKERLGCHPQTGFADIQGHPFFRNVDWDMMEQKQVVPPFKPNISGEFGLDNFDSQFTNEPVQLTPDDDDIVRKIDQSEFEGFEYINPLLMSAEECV

**Q.** For COc1ccc2nc3cc(Cl)ccc3c(Nc3cc(CN4CCCC4)c(O)c(CN4CCCC4)c3)c2n1 [Pyronaridine, 4-[(7-Chloro-2-methoxybenzo[b][1,5]naphthyridin-10-yl)amino]-2,6-bis(1-pyrrolidinylmethyl)phenol phosphate (1:4)], which inhibition at 1 µM (MAPKAPK5 (PRAK)) is on record?
**A.** The inhibition at 1 µM was 3%.

**Q.** What about the inhibition at 1 µM (MARK3) of the same compound?
**A.** The inhibition at 1 µM was 2%.

**Q.** What about the inhibition at 1 µM (MKNK1 (MNK1)) of the same compound?
**A.** The inhibition at 1 µM was 4%.

**Q.** What about the inhibition at 1 µM (RPS6KA1 (RSK1)) of the same compound?
**A.** The inhibition at 1 µM was -1%.

**Q.** And the inhibition at 1 µM (CAMK2D (CaMKII delta))?
**A.** The inhibition at 1 µM was -5%.

**Q.** And the inhibition at 1 µM (DYRK4)?
**A.** Its inhibition at 1 µM is 0%.

**Q.** And the inhibition at 1 µM (EPHB2)?
**A.** Its inhibition at 1 µM is 4%.

**Q.** What about the inhibition at 1 µM (AMPK (A1/B2/G2)) of the same compound?
**A.** The inhibition at 1 µM was -2%.

**Q.** What about the inhibition at 1 µM (IRAK4) of the same compound?
**A.** Its inhibition at 1 µM is -6%.

**Q.** What about the inhibition at 1 µM (PIM1) of the same compound?
**A.** Its inhibition at 1 µM is 8%.

**Q.** And the inhibition at 1 µM (AMPK (A2/B1/G2))?
**A.** The inhibition at 1 µM was 1%.

**Q.** And the inhibition at 1 µM (ABL1 G250E)?
**A.** The inhibition at 1 µM was 1%.

**Q.** And the inhibition at 1 µM (KDR (VEGFR2))?
**A.** Its inhibition at 1 µM is 7%.

**Q.** What about the inhibition at 1 µM (ABL1 T315I) of the same compound?
**A.** Its inhibition at 1 µM is 11%.

**Q.** What about the inhibition at 1 µM (RET A883F) of the same compound?
**A.** Its inhibition at 1 µM is -1%.

**Q.** And the inhibition at 1 µM (MAPK10 (JNK3))?
**A.** Its inhibition at 1 µM is 0%.

**Q.** And the inhibition at 1 µM (CDK17/cyclin Y)?
**A.** The inhibition at 1 µM was -2%.

**Q.** And the inhibition at 1 µM (MAP3K9 (MLK1))?
**A.** The inhibition at 1 µM was 17%.

**Q.** What about the inhibition at 1 µM (PRKCZ (PKC zeta)) of the same compound?
**A.** Its inhibition at 1 µM is -1%.

**Q.** What about the inhibition at 1 µM (KIT V559D V654A) of the same compound?
**A.** Its inhibition at 1 µM is -1%.

**Q.** And the inhibition at 1 µM (FRK (PTK5))?
**A.** Its inhibition at 1 µM is -2%.

**Q.** What about the inhibition at 1 µM (TYRO3 (RSE)) of the same compound?
**A.** Its inhibition at 1 µM is -5%.

**Q.** What about the inhibition at 1 µM (MUSK) of the same compound?
**A.** Its inhibition at 1 µM is -10%.

**Q.** What about the inhibition at 1 µM (PRKCI (PKC iota)) of the same compound?
**A.** Its inhibition at 1 µM is -10%.

**Q.** And the inhibition at 1 µM (RPS6KA3 (RSK2))?
**A.** The inhibition at 1 µM was 10%.

**Q.** And the inhibition at 1 µM (EGFR (ErbB1) G719C)?
**A.** The inhibition at 1 µM was -4%.

**Q.** And the inhibition at 1 µM (PTK2 (FAK))?
**A.** Its inhibition at 1 µM is 2%.

**Q.** What about the inhibition at 1 µM (PTK6 (Brk)) of the same compound?
**A.** Its inhibition at 1 µM is -4%.
